Data taken from US12655148B2, “FXR small-molecule agonist, and preparation method therefor and use thereof” (Shanghai Institute of Materia Medica, Chinese Academy of …, priority 2020, dated 2026).
Like-named read-outs stand apart in the source and are kept apart here.

Assays:
[1] = molecular target: T1, recombinant GST-FXR fusion protein (Homo sapiens, UniProt Q96RI1); assay: FXR activity at the molecular level (AlphaScreen); assay type: biochemical
T1 sequence (Q96RI1 1-486): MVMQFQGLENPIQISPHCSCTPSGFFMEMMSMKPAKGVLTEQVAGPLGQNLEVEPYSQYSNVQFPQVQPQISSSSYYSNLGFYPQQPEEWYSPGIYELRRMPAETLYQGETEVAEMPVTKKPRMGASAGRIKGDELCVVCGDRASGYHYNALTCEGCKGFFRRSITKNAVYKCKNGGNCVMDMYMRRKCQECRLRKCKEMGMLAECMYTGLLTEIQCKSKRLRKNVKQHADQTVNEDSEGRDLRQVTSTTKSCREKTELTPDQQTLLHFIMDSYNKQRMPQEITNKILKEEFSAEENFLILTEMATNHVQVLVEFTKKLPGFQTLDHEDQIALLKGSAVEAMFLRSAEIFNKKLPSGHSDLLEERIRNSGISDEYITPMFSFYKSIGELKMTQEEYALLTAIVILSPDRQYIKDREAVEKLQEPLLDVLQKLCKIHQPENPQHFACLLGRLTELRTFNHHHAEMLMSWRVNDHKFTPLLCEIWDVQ
Experimental: Test Method for FXR Activity at the Molecular Level
FXR activity was determined using recombinant GST-FXR fusion protein by AlphaScreen detection reagent from PerkinElmer. The reaction in this method was carried out in a 384-well plate, and the total reaction volume was 15 μL. A mixture of protein, agonist, co-regulatory factor, AlphaScreen® acceptor beads and AlphaScreen® donor beads was reacted in a buffer containing Tris-HCl 50 mM (pH7.4), 50 mM NaCl, BSA 0.1%, and 1 mM DTT. The FXR activity was reflected by the fluorescence signal intensity at 570 nm wavelength detected by the Envision fluorescence detector.

[2] = molecular target: T2, FXR receptor (Homo sapiens, UniProt Q96RI1); assay: FXR activity at the cellular level (FXRE luciferase reporter in 293T cells); assay type: cell-based
T2 construct: expressed in transfected cells; host or cells: 293T cells
T2 sequence (Q96RI1 1-486): T1 sequence (Q96RI1 1-486)
Experimental: The cells were cultured for 24 hours to ensure plasmid expression. Then the FXR receptor agonists to be tested were added and incubated for 18 hours. The fluorescence intensity was detected using a luciferase kit (steady-Glo Luciferase Assay system) to reflect the compound's activation efficiency on the FXR receptor.

[3] = AlphaScreen, GST-FXR, read-out: FXR activity at the molecular level EC50
[4] = 293T cells, luciferase reporter
[5] = 293T cells, luciferase reporter, read-out: FXR activity at the celluar level EC50

SMILES | EC50 [1, 3] [nM] | FXR activity at the celluar level Activity relative to OCA (%) 10 μM [2, 4] [%] | EC50 [2, 5] [nM] | EC50 [2] [nM] | difference of activity on FXR at molecular level, endo-compound vs exo-compound ([1]; endo- versus exo-compound) | EC50 [1] [nM]
O=c1[nH]c(-c2ccc(N3[C@@H]4CC[C@H]3C[C@@H](OCc3c(-c5ccccc5C(F)(F)F)noc3C3CC3)C4)cc2F)no1 [Example 9] | 10 to 100 | 102 | 0.1 to 1 | – | – | –
O=c1[nH]c(-c2ccc(N3[C@@H]4CC[C@H]3C[C@@H](OCc3c(-c5c(Cl)cccc5Cl)noc3C3CC3)C4)nc2)no1 [Example 4] | < 10 | 103 | < 0.1 | – | – | –
O=c1[nH]c(-c2ccc(N3[C@@H]4CC[C@H]3C[C@@H](OCc3c(-c5ccccc5OC(F)(F)F)noc3C3CC3)C4)nc2)no1 [Example 6] | 10 to 100 | 122 | 0.1 to 1 | – | – | –
Cc1ccccc1-c1noc(C2CC2)c1CO[C@H]1C[C@H]2CC[C@@H](C1)N2c1ccc(-c2noc(=O)[nH]2)c(F)c1 [Example 14] | 10 to 100 | 106 | 0.1 to 1 | – | – | –
O=c1[nH]c(-c2ccc(N3[C@@H]4CC[C@H]3C[C@@H](OCc3c(-c5c(Cl)cccc5Cl)noc3C3CC3)C4)cc2F)no1 [Example 8] | < 10 | 102 | – | < 0.1 | – | –
O=c1[nH]c(-c2ccc(N3[C@@H]4CC[C@H]3C[C@@H](OCc3c(-c5c(F)cccc5F)noc3C3CC3)C4)nc2)no1 [Example 3] | 10 to 100 | 116 | 0.1 to 1 | – | – | –
O=c1[nH]c(-c2ccc(N3[C@@H]4CC[C@H]3C[C@H](OCc3c(-c5c(Cl)cccc5Cl)noc3C3CC3)C4)cc2)no1 [Example 2] | > 1000 | 73 | > 100 | – | – | –
O=c1[nH]c(-c2ccc(N3[C@@H]4CC[C@H]3C[C@@H](OCc3c(-c5ccccc5C(F)(F)F)noc3C3CC3)C4)nc2)no1 [Example 5] | 10 to 100 | 141 | 0.1 to 1 | – | – | –
O=c1[nH]c(-c2ccc(N3[C@@H]4CC[C@H]3C[C@@H](OCc3c(-c5c(Cl)cccc5Cl)noc3C3CC3)C4)cc2)no1 [Example 1] | < 10 | 88 | 1 to 10 | – | more than 100 times | –
O=c1[nH]c(-c2ccc(N3[C@@H]4CC[C@H]3C[C@@H](OCc3c(-c5c(F)cccc5F)noc3C3CC3)C4)cc2F)no1 [Example 7] | – | 117 | – | 0.1 to 1 | – | 10 to 100
O=c1[nH]c(-c2ccc(N3[C@@H]4CC[C@H]3C[C@@H](OCc3c(-c5ccccc5OC(F)F)noc3C3CC3)C4)cc2F)no1 [Example 13] | 10 to 100 | 108 | 0.1 to 1 | – | – | –
Cc1ccccc1-c1noc(C2CC2)c1CO[C@H]1C[C@H]2CC[C@@H](C1)N2c1ccc(-c2noc(=O)[nH]2)cn1 [Example 12] | 10 to 100 | 105 | 1 to 10 | – | – | –
O=c1[nH]c(-c2ccc(N3[C@@H]4CC[C@H]3C[C@@H](OCc3c(-c5ccccc5OC(F)F)noc3C3CC3)C4)nc2)no1 [Example 11] | 10 to 100 | 108 | 1 to 10 | – | – | –
O=c1[nH]c(-c2ccc(N3[C@@H]4CC[C@H]3C[C@@H](OCc3c(-c5ccccc5OC(F)(F)F)noc3C3CC3)C4)cc2F)no1 [Example 10] | 10 to 100 | 102 | 0.1 to 1 | – | – | –
